Assay results: patent publication US9688743B2, “Optical biosensors” (Carnegie Mellon University, priority 2007, dated 2017)

Experiments:
JAR200 cells = assay: Effect of fluorogens on yeast cell growth; type: cell-based; conditions: 500 nM fluorogen, 30° C.
Procedure: FIG. 17 is a graph depicting the effect of fluorogens on yeast cell growth. JAR200 cells are inoculated at ˜10^6 cells/ml into 35 ml SD+CAA medium in 125 ml baffled flasks and allowed to grow at 30° C. at 300 RPM for 2 hours prior to addition of fluorogens at the indicated concentrations. One ml samples are removed at indicated time points, and growth halted by addition of 75 μl of 300 mM NaN3 prior to reading absorbance. Doubling time of about 1.9 hrs is unchanged by most fluorogen treatments. For 500 nM MG-ester, the doubling time is about 2.8 hrs; and for 500 nM MG, the doubling time is over 24 hrs.

[1] = comparison value; cited from earlier work
living NIH3T3 cells = assay: Entry of fluorogen controls into living cells; type: cell-based, mouse

| Compound | doubling time (JAR200 cells) | also measured |
| --- | --- | --- |
| CN(C)c1ccc(C(=C2C=CC(=[N+](C)C)C=C2)c2ccccc2)cc1 [MG, malachite green, reference compound] | over 24 hrs | – |
| CCOC(=O)CCCc1ccc([C+](c2ccc(N(C)C)cc2)c2ccc(N(C)C)cc2)cc1.[Cl-] [MG-ester, Methylium, bis[4-(dimethylamino)phenyl](4-(3-carboethoxypropyl)phenyl)-chloride] | about 2.8 hrs | – |
| O=C(O)c1ccccc1-c1c2ccc(=O)c([As]3SCCS3)c-2oc2c([As]3SCCS3)c(O)ccc12 [F1AsH-EDT2] | – | fluorescence increase on binding cognate tetracysteine peptide [1]: 50,000 fold |
| 2-[(1-(18-amino-4,9-diaza-12,15-dioxa-5,8-dioxo-octadecanyl)-4(111)-quinolinylidene)methyl-3-(3-sulfopropyl)benzothiazolinium]trifluoroacetate [TO1-2p] | – | entry into living cells (living NIH3T3 cells): did not enter living NIH3T3 cells |
